Assay results taken from US7022311B1, “Powdery inhalational preparations and process for producing the same” (Kaken Pharmaceutical Co., Ltd., priority 1999, dated 2006).

Tests used:
[1] = In vitro lung delivery fraction test with multi-stage cascade impactor (Andersen sampler, Jethaler); assay type: physicochemical; details: 28.3 L/min; for Residual and Distributed Fractions of Active Ingredient: Capsule / Residual and Distributed Fractions of Active Ingredient: Inhaler device / Residual and Distributed Fractions of Active Ingredient: Stage 0 / Residual and Distributed Fractions of Active Ingredient: Stage 1 / Residual and Distributed Fractions of Active Ingredient: Stages 2–7 / Residual and Distributed Fractions of Active Ingredient: Throat / Capsule, residual active ingredient / Inhaler device, residual active ingredient / Stage 0, distribution of active ingredient / Stage 1, distribution of active ingredient / Stages 2–7, lung delivery fraction / Throat, distribution of active ingredient: S-36496 10%
Description: Capsulated preparations (The Japanese Pharmacopeia No. 2 HPMC capsules: manufactured by Shionogi Qualicaps Co., Ltd.) which were filled with about 40 mg each of three dry powder inhalations were prepared and mounted on an inhaler device (Jethaler; Unisia Jecs Corp.) The Jethaler was then attached to the mouthpiece of a cascade impactor (Andersen sampler Model AN-200) and inspired at a flow rate of 28.3 L/min., thereby dispersing the micronized medication in the capsule and measuring the residual active ingredient in the capsule and in the inhaler device as well as the distribution of the active ingredient at each stage with liquid chromatography. It was confirmed that in the in vitro test with cascade impactor, the lung delivery fraction at stages 2–7 corresponding to the respiring fraction differed substantially depending on the different carrier particles.
(§1) Capsulated preparations (The Japanese Pharmacopeia No. 2HPMC capsules: manufactured by Shionogi Qualicaps Co., Ltd.), which were filled with about 40 mg each of three dry powder inhalations, were prepared and mounted on an inhaler device (Jethaler®; Unisia Jecs Corp.). The Jethaler® brand device was then attached to the mouthpiece of a cascade impactor (Andersen sampler; Model AN-200) and inspired at a flow rate of 28.3 L/min., thereby dispersing the dry powder inhalation in the capsule and measuring the residual active ingredient in the capsule and in the inhaler device as well as the distribution of the active ingredient at each stage with liquid chromatography.
(§2) A capsulated preparation (The Japanese Pharmacopeia No. 2HPMC capsules: manufactured by Shionogi Qualicaps Co., Ltd.) which was filled with about 40 mg of the prepared dry powder inhalations was prepared and mounted on an inhaler device (Jethaler; Unisia Jecs Corp.) The Jethaler was then attached to the mouthpiece of a cascade impactor (Andersen sampler; Model AN-200) and inspired at a flow rate of 28.3 L/min., thereby dispersing the dry powder inhalation in the capsule and measuring the residual active ingredient in the capsule and in the inhaler device as well as the distribution of the active ingredient at each stage with liquid chromatography.
as §1, with “A capsulated preparation (The” for “Capsulated preparations (The”, “which was” for “which were”, “mg” for “mg each”, “chromatography. […]” for “chromatography.”
as §2, with “2 HPMC” for “2HPMC”, “Ltd.)” for “Ltd.) which was”, “inhalation” for “inhalations”

[2] = Dispersibility of active ingredient from carrier particles, laser diffraction particle size analyzer; assay type: physicochemical; details: Example 17: S-36496 10%, micronized lactose 1%, carrier trehalose 89%, particles of 10 μm or less
[3] = Example 10: S-36496 3.2%, carrier lactose 95.8%, micronized lactose 1.0%
[4] = Example 17: S-36496 10%, micronized lactose 1%, carrier trehalose 89%, Vertical Granulator 5 min
[5] = micronized lactose 1%, carrier trehalose 89% of particle size 48.6 μm
[6] = micronized lactose 1%, carrier trehalose 89% of particle size 81.0 μm
[7] = micronized lactose 1%, carrier trehalose 89% of particle size 97.9 μm
[8] = micronized lactose 1%, erythritol carrier 89% of mean particle diameter 53.8 μm
[9] = micronized lactose 1%, erythritol carrier 89% of mean particle diameter 81.6 μm
[10] = micronized lactose 1%, erythritol carrier 89% of mean particle diameter 155.9 μm

Structure (SMILES): CC(C)c1csc(COc2cccc(CN(CCCCNS(=O)(=O)c3ccc(Cl)cc3)S(=O)(=O)c3ccccc3C(=O)O)c2)n1 [Example S-36496, 2-{N-[4-(4-chlorobenzenesulfonylamino)butyl]-N-{3-[(4-isopropyl-2-thiazoyl)methoxy]benzyl}}sulfamoylbenzenolic acid]
- Residual and Distributed Fractions of Active Ingredient (%): Capsule [1, 3]: 8.2%
- Residual and Distributed Fractions of Active Ingredient (%): Inhaler device [1, 3]: 19.3%
- Residual and Distributed Fractions of Active Ingredient (%): Stage 0 [1, 3]: 19.5%
- Residual and Distributed Fractions of Active Ingredient (%): Stage 1 [1, 3]: 9.1%
- Residual and Distributed Fractions of Active Ingredient (%): Stages 2–7 [1, 3]: 18.2%
- Residual and Distributed Fractions of Active Ingredient (%): Throat [1, 3]: 25.7%
- Residual and Distributed Fractions of Active Ingredient (%): Capsule [1, 4]: 7.3%
- Residual and Distributed Fractions of Active Ingredient (%): Inhaler device [1, 4]: 19.4%
- Residual and Distributed Fractions of Active Ingredient (%): Stage 0 [1, 4]: 22.3%
- Residual and Distributed Fractions of Active Ingredient (%): Stage 1 [1, 4]: 5.8%
- Residual and Distributed Fractions of Active Ingredient (%): Stages 2–7 [1, 4]: 30.2%
- Residual and Distributed Fractions of Active Ingredient (%): Throat [1, 4]: 15.0%
- Residual and Distributed Fractions of Active Ingredient: Capsule [1, 5]: 9.0%
- Residual and Distributed Fractions of Active Ingredient: Inhaler device [1, 5]: 24.2%
- Residual and Distributed Fractions of Active Ingredient: Stage 0 [1, 5]: 24.7%
- Residual and Distributed Fractions of Active Ingredient: Stage 1 [1, 5]: 2.9%
- Residual and Distributed Fractions of Active Ingredient: Stages 2–7 [1, 5]: 6.4%
- Residual and Distributed Fractions of Active Ingredient: Throat [1, 5]: 32.8%
- Residual and Distributed Fractions of Active Ingredient: Capsule [1, 6]: 4.9%
- Residual and Distributed Fractions of Active Ingredient: Inhaler device [1, 6]: 19.1%
- Residual and Distributed Fractions of Active Ingredient: Stage 0 [1, 6]: 18.4%
- Residual and Distributed Fractions of Active Ingredient: Stage 1 [1, 6]: 2.0%
- Residual and Distributed Fractions of Active Ingredient: Stages 2–7 [1, 6]: 31.4%
- Residual and Distributed Fractions of Active Ingredient: Throat [1, 6]: 24.2%
- Residual and Distributed Fractions of Active Ingredient: Capsule [1, 7]: 5.8%
- Residual and Distributed Fractions of Active Ingredient: Inhaler device [1, 7]: 25.1%
- Residual and Distributed Fractions of Active Ingredient: Stage 0 [1, 7]: 18.2%
- Residual and Distributed Fractions of Active Ingredient: Stage 1 [1, 7]: 5.8%
- Residual and Distributed Fractions of Active Ingredient: Stages 2–7 [1, 7]: 17.9%
- Residual and Distributed Fractions of Active Ingredient: Throat [1, 7]: 27.2%
- Capsule, residual active ingredient [1, 8]: 3.0%
- Inhaler device, residual active ingredient [1, 8]: 18.2%
- Stage 0, distribution of active ingredient [1, 8]: 28.9%
- Stage 1, distribution of active ingredient [1, 8]: 3.5%
- Stages 2–7, lung delivery fraction [1, 8]: 24.4%
- Throat, distribution of active ingredient [1, 8]: 22.0%
- Capsule, residual active ingredient [1, 9]: 2.6%
- Inhaler device, residual active ingredient [1, 9]: 14.6%
- Stage 0, distribution of active ingredient [1, 9]: 21.8%
- Stage 1, distribution of active ingredient [1, 9]: 3.8%
- Stages 2–7, lung delivery fraction [1, 9]: 40.4%
- Throat, distribution of active ingredient [1, 9]: 16.9%
- Capsule, residual active ingredient [1, 10]: 2.5%
- Inhaler device, residual active ingredient [1, 10]: 2.9%
- Stage 0, distribution of active ingredient [1, 10]: 66.4%
- Stage 1, distribution of active ingredient [1, 10]: 15.2%
- Stages 2–7, lung delivery fraction [1, 10]: 11.3%
- Throat, distribution of active ingredient [1, 10]: 1.7%
- Dispersibility of drugs (active ingredient) (%) ([2]; Spray Pressure 0.2 kg/cm^2): 8.3%
- Dispersibility of drugs (active ingredient) (%) ([2]; Spray Pressure 0.3 kg/cm^2): 9.4%
